Source: paper PMC5924788 (Frontiers in Chemistry, 2018)
Like-named read-outs stand apart in the source and are kept apart here. Marks after values point to notes of the source that are not given here.

Columns and labels:
[1] = target: T1, AChE (Electrophorus electricus, UniProt O42275); assay: AChE inhibition, Ellman's method; format: biochemical, Electrophorus electricus (electric eel)
T1 construct: purchased Sigma-Aldrich Química S. A
Text: (§1) Acetylcholinesterase (AChE) from Electrophorus electricus (electric eel), butyrylcholinesterase (BChE) and acetylthiocholine iodide (ATCI), butyrylthiocholine iodide (BTCI), 5,5′-dithiobis-(2-nitrobenzoate) (DTNB), (4,5-dimethylthiazol-2-yl)-2,5-diphenyl tetrazolium (MTT) bromide and Dulbecco's modified Eagle's medium (DMEM) with 4.5 g/L glucose were obtained from Sigma-Aldrich Química S. A. Reagents used in cell culture, including nonessential amino acids (NEAA), heat inactivated fetal bovine serum (FBS), 0.05% trypsin/1 mM EDTA, antibiotic (10000 U/mL penicillin, 10,000 μg/mL streptomycin) and Hank's balanced salt solution (HBSS) were purchased from Gibco Laboratories. Dimethylsulfoxide (DMSO-d6), absolute ethanol and acetic acid were obtained from Merck. All reagents were of analytical grade or of the highest grade available.
(§2) Briefly, 100 μL of sodium phosphate buffer, 40 μL of DTNB, 20 μL of the test compounds/standard inhibitors and 20 μL of AChE or BChE were incubated for 5 min at 30°C in a 96-well microplate (BRANDplates, pureGradeTM, BRAND GMBH, Wertheim, Germany). After that, 20 μL of ATCI or BTCI was added, respectively. […] A control using 20 μL of sodium phosphate buffer instead of compound solution was also performed. The IC50 values were determined in triplicate from the dose-response inhibition curves and are expressed as mean ± standard deviation (SD).
(§3) ATCI and BTCI were used as substrates for AChE or BChE, respectively, generating thiocholine and acetate or butyrate.

[2] = target: T2, BChE (Homo sapiens, UniProt P06276); assay: biochemical
T2 construct: purchased Sigma-Aldrich Química S. A
T2 sequence (P06276 29-602, species assumed): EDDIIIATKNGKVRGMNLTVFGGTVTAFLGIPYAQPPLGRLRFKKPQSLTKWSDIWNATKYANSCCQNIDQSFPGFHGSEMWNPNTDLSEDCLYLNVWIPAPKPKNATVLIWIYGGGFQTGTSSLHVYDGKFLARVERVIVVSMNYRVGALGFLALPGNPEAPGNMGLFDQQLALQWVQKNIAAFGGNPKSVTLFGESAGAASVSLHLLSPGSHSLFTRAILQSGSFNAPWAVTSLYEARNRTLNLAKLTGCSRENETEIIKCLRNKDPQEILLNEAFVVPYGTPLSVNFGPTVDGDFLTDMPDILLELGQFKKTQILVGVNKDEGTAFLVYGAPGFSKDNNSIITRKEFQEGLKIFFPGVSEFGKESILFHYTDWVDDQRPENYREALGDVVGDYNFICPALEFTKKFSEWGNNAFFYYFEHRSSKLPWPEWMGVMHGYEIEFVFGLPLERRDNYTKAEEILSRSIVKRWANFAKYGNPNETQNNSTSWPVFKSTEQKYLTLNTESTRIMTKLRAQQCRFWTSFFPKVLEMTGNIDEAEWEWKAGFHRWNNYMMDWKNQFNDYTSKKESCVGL
Text: as §1, §2, §3

[3] = tested on: SH-SY5Y cells; assay: Cytotoxicity in differentiated SH-SY5Y cells (MTT reduction); format: cell-based, human; settings: 24 h; for cellular metabolic activity (MTT reduction), cytotoxicity: differentiated SH-SY5Y, 1, 10 and 50 μM
Protocol: SH-SY5Y (ATCC, Manassas, VA, USA), a neuroblastoma cell line, was routinely cultured in 75-cm^2 flasks (Corning Costar, Corning, NY, USA) using DMEM with 4.5 g/L glucose, supplemented with 10% heat-inactivated FBS (v/v), 1% NEAA (v/v), 100 U/mL penicillin, and 100 μg/mL streptomycin. The cells used for all the experiments were taken between the 37th and 45th passages, to avoid phenotypic changes. […] Three days after seeding, the medium of cells was changed, adding cell culture medium with 0.1% of TPA for more 3 days before treatment.
(§4) The cytotoxicity profile of the compounds under study was evaluated in differentiated SH-SY5Y cells (8,000 cells/well), according the differentiation protocol previously described, and in HepG2 cells (2.5 × 10^4 cells/well), seeded into 96-well plates. […]. In both assays, the reduction of MTT tetrazolium salt or resazurin to MTT formazan or resorufin, respectively, by cellular dehydrogenases present in viable cells, gives insights on cell metabolic activity.
For the MTT assay, the cell culture medium was removed after the incubation time, followed by the addition of fresh cell culture medium containing 0.5 mg/mL MTT and incubation for 30 min. After this incubation period, the cell culture medium was removed, and the formed formazan crystals dissolved in DMSO. The absorbance was measured at 550 nm in a multi-well plate reader (BioTek Instruments, Vermont, USA). The percentage of MTT reduction relative to that of the control cells was used as the cytotoxicity measure [MTT reduction (% of control)] as means ± SEM of four independent experiments.

[4] = tested on: HepG2 cells; assay: Cytotoxicity in HepG2 cells (resazurin reduction); format: cell-based, human; settings: 48 h; for cellular metabolic activity (resazurin reduction), cytotoxicity: HepG2, 1, 10 and 50 μM
Protocol: Human hepatocellular carcinoma cells (HepG2, ECACC, UK) were also used in this study. Cells were cultured in low-glucose medium (5 mM) composed by Dulbecco's modified Eagle's medium (DMEM, D5030) supplemented with sodium pyruvate (0.11 g/L), sodium bicarbonate (3.7 g/L), HEPES (1.19 g/L), 6 mM glutamine and 10% fetal bovine serum (FBS) and 1% of antibiotic penicillin-streptomycin 100 × solution. HepG2 (2.5 × 10^4 cells/well) cells were seeded in a 96-well plate and proliferate for 24 h before treatment.
as §4
Regarding the resazurin reduction assay, after the incubation time, the medium was replaced by fresh medium containing resazurin (10 μg/mL) prepared in sterile PBS (1X) and left to react for 1 h. The fluorescent signal was monitored using a 540 nm excitation wavelength and 590 nm emission wavelength in a Cytation 3 reader (BioTek Instruments Inc., USA). The percentage of resazurin reduction relative to that of the control cells was used as the cytotoxicity measure [resazurin reduction (% of control)] as means ± SEM of four independent experiments.

[5] = tested on: SH-SY5Y cells; assay: Neuroprotection against Aβ1–42 peptide-induced cytotoxicity (resazurin reduction); settings: for neuroprotective effect against Aβ1–42 peptide-induced cytotoxicity: 10 μM pre-treatment 24 h, then Aβ1–42 25 μM 48 h
Protocol: The antioxidant efficiency of the new HBAc derivatives was evaluated in the presence of Aβ1–42 peptide. […] Aβ1–42 aliquots were then stored at −20°C until use (enriched oligomeric Aβ1–42 preparation).
Undifferentiated SH-SY5Y cells were seeded onto 96-well plates (8000 cells/well) and differentiated as previously described. […] After incubation time, cellular metabolic activity was determined using the resazurin reduction assay as previously described.
Aβ aggregation, the pathological hallmark of AD, is the most targeted biomarker in drug discovery and development for AD.

[6] = target: T2, BChE; assay: BChE-inhibitor kinetics (Lineweaver-Burk and Dixon plots); format: biochemical
Protocol: (§5) To evaluate the mechanism of AChE and BChE inhibition of the most promising compounds substrate-dependent kinetic experiments were performed. […] The results are presented as double reciprocal Lineweaver-Burk plots (1/V vs. 1/[S]). The kinetic data, namely Km and Vmax, were acquired employing Michaelis-Menten equation. The Ki values were estimated using Dixon plots, by replotting the slope of each Lineweaver-Burk plot vs. the inhibitor concentration. In the Dixon plots, the Ki value was obtained from the x-axis intercept (–Ki). The enzymatic reactions and measurements were performed using the same AChE and BChE assay conditions as described above (determined in triplicate). Linear regression analysis was performed using GraphPad Prism 5.0 (GraphPad Software, Inc.).
(§6) In order to understand the AChE and BChE inhibitory mechanism of the most promising ChE inhibitors, kinetic experiments were performed. […] Graphical analysis of the reciprocal Lineweaver–Burk plots was used to determine Michaelis-Menten reaction kinetic parameters (Km and Vmax).

[7] = mean ± SD; ref Teixeira et al. ([2017a]); cited from earlier work
[8] = mean ± SD; ref Teixeira et al. ([2017a]); cited from earlier work; remark: listed apart in the source
[9] = ref Teixeira et al. ([2017a]); cited from earlier work
[10] = DPPH radical scavenging assay; settings: mean ± SD, triplicate
Protocol: (§7) The IC50 values were determined in triplicate from the dose-response inhibition curves and are expressed as mean ± standard deviation (SD).

[11] = ABTS radical cation scavenging assay; settings: mean ± SD, triplicate
Protocol: as §7

[12] = Redox properties by differential pulse and cyclic voltammetry; format: physicochemical; settings: physiological pH 7.4, differential pulse voltammetry, glassy carbon electrode
Protocol: Voltammetric studies were performed using an Autolab PGSTAT12 potentiostat/galvanostat (Metrohm Autolab, Netherland) and a one-compartment glass electrochemical cell.

[13] = target: T1, AChE; assay: AChE-inhibitor kinetics (Lineweaver-Burk and Dixon plots); format: biochemical, Electrophorus electricus (electric eel)
Protocol: as §5, §6

[14] = mean ± SD, triplicate, 30°C, read-out: IC50 BChE
[15] = Lineweaver-Burk plots, Vmax decreased, Km unchanged

T1 sequence (O42275 24-633): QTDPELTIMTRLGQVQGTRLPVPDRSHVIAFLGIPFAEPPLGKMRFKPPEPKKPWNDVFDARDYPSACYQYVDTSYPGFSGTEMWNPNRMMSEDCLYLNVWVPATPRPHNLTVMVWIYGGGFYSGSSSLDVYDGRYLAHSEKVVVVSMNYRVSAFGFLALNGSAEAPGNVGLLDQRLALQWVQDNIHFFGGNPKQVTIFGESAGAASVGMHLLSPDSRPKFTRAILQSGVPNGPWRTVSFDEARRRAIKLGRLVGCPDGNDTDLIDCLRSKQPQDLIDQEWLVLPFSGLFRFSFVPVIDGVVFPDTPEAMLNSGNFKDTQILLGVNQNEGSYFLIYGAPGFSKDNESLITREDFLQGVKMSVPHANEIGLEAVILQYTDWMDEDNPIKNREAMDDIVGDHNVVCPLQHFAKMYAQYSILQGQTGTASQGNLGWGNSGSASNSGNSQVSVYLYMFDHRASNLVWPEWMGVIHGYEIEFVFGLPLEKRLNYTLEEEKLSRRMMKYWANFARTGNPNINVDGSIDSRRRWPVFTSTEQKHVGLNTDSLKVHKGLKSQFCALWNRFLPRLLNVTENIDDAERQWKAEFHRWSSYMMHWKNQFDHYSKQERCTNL

Compound	IC50 [1]	SI: BChE selectivity index = IC50(AChE)/IC50(BChE) [2]	cellular metabolic activity (MTT reduction), cytotoxicity [3]	cellular metabolic activity (resazurin reduction), cytotoxicity [4]	neuroprotective effect against Aβ1–42 peptide-induced cytotoxicity [5]	IC50 [10]	IC50 [11]	IC50 [2]	Ep (oxidation potential) [12]	further results
O=C(NCCCCCC[P+](c1ccccc1)(c1ccccc1)c1ccccc1)c1ccc(O)c(O)c1 [AntiOxBEN1]	> 50 µM	> 588	dose-dependent toxicity	dose-dependent toxicity	significantly prevented Aβ1–42 peptide-induced dysfunction/cell death					effect on AChE ([1]; at 50 μM): did not have any effect; IC50 [2, 14]: 0.085 ± 0.005 µM; Ki [6]: 0.0295 µM; BChE inhibition mechanism [6, 15]: non-competitive; IC50 [7]: 31 ± 0.8 µM; IC50 [8]: 20.7 ± 0.8 µM; Ep (oxidation potential) [9]: 219^* mV
O=C(NCCCCCC[P+](c1ccccc1)(c1ccccc1)c1ccccc1)c1cc(O)c(O)c(O)c1 [AntiOxBEN2]	40.5 ± 7 µM	86	did not alter cellular metabolic activity	did not alter cellular metabolic activity	more evident					IC50 [2, 14]: 0.474 ± 0.017 µM; IC50 [7]: 14 ± 0.3 µM; IC50 [8]: 6.5 ± 0.5 µM; Ep (oxidation potential) [9]: 115^* mV
O=C(NCCCCCCCC[P+](c1ccccc1)(c1ccccc1)c1ccccc1)c1ccc(O)c(O)c1.[Br-] [Compound 15, (8-(3,4-Dihydroxybenzamido)octyl)triphenylphosphonium bromide]	11.2 ± 0.8 µM	106	dose-dependent toxicity	dose-dependent toxicity		31.2 ± 0.9 µM	23.5 ± 1.3 µM	0.106 ± 0.005 µM	216 mV	
O=C(NCCCCCCCC[P+](c1ccccc1)(c1ccccc1)c1ccccc1)c1cc(O)c(O)c(O)c1.[Br-] [Compound 16, (8-(3,4,5-Trihydroxybenzamido)octyl)triphenylphosphonium bromide]	15.7 ± 0.9 µM	62	did not alter cellular metabolic activity	did not alter cellular metabolic activity	more evident	16.8 ± 1.6 µM	6.8 ± 0.6 µM	0.255 ± 0.009 µM	121 mV	
O=C(NCCCCCCCCCC[P+](c1ccccc1)(c1ccccc1)c1ccccc1)c1ccc(O)c(O)c1.[Br-] [Compound 17, (10-(3,4-Dihydroxybenzamido)decyl)triphenylphosphonium bromide]	7.7 ± 0.4 µM		dose-dependent toxicity	dose-dependent toxicity	more evident	31 ± 0.6 µM	19.4 ± 1 µM	0.195 ± 0.02 µM	210 mV	
O=C(NCCCCCCCCCC[P+](c1ccccc1)(c1ccccc1)c1ccccc1)c1cc(O)c(O)c(O)c1.[Br-] [Compound 18, (10-(3,4,5-Trihydroxybenzamido)decyl)triphenylphosphonium bromide]	7.2 ± 0.5 µM	13	did not alter cellular metabolic activity	did not alter cellular metabolic activity	significantly prevented Aβ1–42 peptide-induced dysfunction/cell death	10.2 ± 1.1 µM	7.4 ± 0.5 µM	0.553 ± 0.022 µM	114 mV	cellular metabolic activity (MTT reduction) ([3]; SH-SY5Y, 1 and 10 μM): slightly increased; cellular metabolic activity (resazurin reduction) ([4]; HepG2, 10 and 50 μM): slightly increased; Ki [13]: 6.6 µM; AChE inhibition mechanism [13, 15]: non-competitive
Aβ1–42 [reference compound]										decrease of cell viability compared to control ([5]; Aβ1–42 peptide 25 μM, 48 h, resazurin): about 28%
